Test systems include PC-3 prostate; RXF 393 renal; NCI-H23 lung; CCRF-CEM leukemia; OVCAR-4 ovarian; KM12 colon; UACC-62 melanoma; RPMI-8226 leukemia; SN12C renal; K-562 leukemia; HOP-92 NSCLC; SF-295 CNS; COLO 205 colon; BT-549 breast; U251 CNS; T-47D breast; SK-MEL-2 melanoma; MALME-3M melanoma.
What all share (test): inhibition of tumour cell growth, NCI panel, 48 h

Results on 8 molecules are retold here after PubChem BioAssay (NCI).

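Exposure lasted 48 hours, with cells grown in 96-well plates and compounds tested at five concentrations. The concentration for full growth arrest is given as TGI.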

For `O=C1/C(=C/c2ccccc2)CCC/C1=C\c1ccc(O)c(CN2CCCCC2)c1`, the TGI in the assay on PC-3 prostate is 13.8 µM; in the assay on RXF 393 renal, 26.7 µM; in the assay on NCI-H23 lung, 15.1 µM; in the assay with CCRF-CEM leukemia, above 100 µM; with OVCAR-4 ovarian, 13.8 µM; in the assay on KM12 colon, 4.98 µM. Also, the TGI was 10.5 µM in the assay with UACC-62 melanoma; above 100 µM with RPMI-8226 leukemia; 9.53 µM with SN12C renal; above 100 µM in the assay on K-562 leukemia; 15.4 µM in the assay on HOP-92 NSCLC; 13 µM in the assay on SF-295 CNS. The TGI with COLO 205 colon is 15.4 µM; in the assay on BT-549 breast it was 10.5 µM; in the assay on U251 CNS it was 11 µM; in the assay with T-47D breast, 17.6 µM; in the assay on SK-MEL-2 melanoma it was 29.2 µM; with MALME-3M melanoma, 40.2 µM.

For `NC(=O)NC(=O)c1cccc(NC(=O)CF)c1`, the TGI with PC-3 prostate, in the assay with RXF 393 renal, with NCI-H23 lung, in the assay with CCRF-CEM leukemia, in the assay with OVCAR-4 ovarian and in the assay on KM12 colon was above 100 µM each time. In addition, the TGI with UACC-62 melanoma, with RPMI-8226 leukemia, in the assay on SN12C renal, in the assay with K-562 leukemia, in the assay with HOP-92 NSCLC and in the assay on SF-295 CNS was above 100 µM each time. For the same molecule, the TGI in the assay on COLO 205 colon, in the assay with BT-549 breast, in the assay on U251 CNS, with T-47D breast, with SK-MEL-2 melanoma and with MALME-3M melanoma was above 100 µM each time.

Turning to `O=C1/C(=C/c2c(Cl)[nH]c3ccccc23)c2ccccc2N1c1ccccc1`, the TGI stood at 19.4 µM in the assay on PC-3 prostate; 31.1 µM in the assay with RXF 393 renal; 19.3 µM with NCI-H23 lung; 31.9 µM in the assay with CCRF-CEM leukemia; 19.7 µM in the assay with KM12 colon; 21.1 µM in the assay with UACC-62 melanoma. Also, the TGI with RPMI-8226 leukemia is 22.3 µM; in the assay on SN12C renal it was 20.3 µM; in the assay with K-562 leukemia, above 100 µM; with HOP-92 NSCLC it was 31.8 µM; in the assay on SF-295 CNS, 8.54 µM; in the assay on COLO 205 colon, 5.34 µM. Further, the TGI turned out to be 21.2 µM in the assay on BT-549 breast; 22.9 µM with U251 CNS; 16 µM with T-47D breast; 9.57 µM in the assay on SK-MEL-2 melanoma; 18.6 µM in the assay with MALME-3M melanoma.

For the molecule `O=c1[nH]c(-c2ccccc2)nc2c1sc1nc3ccccc3n12`, the TGI with PC-3 prostate, in the assay with RXF 393 renal, with NCI-H23 lung, in the assay with CCRF-CEM leukemia, with OVCAR-4 ovarian and with KM12 colon was above 100 µM throughout. The TGI with UACC-62 melanoma, with RPMI-8226 leukemia, in the assay with SN12C renal, in the assay on K-562 leukemia, with HOP-92 NSCLC and in the assay with SF-295 CNS was above 100 µM in each case. Further, the TGI in the assay on COLO 205 colon, in the assay with BT-549 breast, in the assay on U251 CNS, with T-47D breast, with SK-MEL-2 melanoma and in the assay with MALME-3M melanoma was above 100 µM throughout.

Take `O=c1oc2c(ccc3ccccc32)cc1C1=CSC2=NCCN12`: the TGI in the assay with PC-3 prostate, in the assay with RXF 393 renal, in the assay on NCI-H23 lung, with CCRF-CEM leukemia, in the assay with OVCAR-4 ovarian and in the assay with KM12 colon was above 100 µM each time. In addition, the TGI was above 100 µM in the assay with UACC-62 melanoma; above 100 µM in the assay with RPMI-8226 leukemia; above 100 µM in the assay on SN12C renal; above 100 µM in the assay with K-562 leukemia; 84.3 µM in the assay with HOP-92 NSCLC; above 100 µM with SF-295 CNS. The TGI was above 100 µM in the assay with COLO 205 colon; 71.1 µM in the assay with BT-549 breast; above 100 µM in the assay with U251 CNS; above 100 µM in the assay with T-47D breast; above 100 µM with SK-MEL-2 melanoma; above 100 µM in the assay with MALME-3M melanoma.

Consider `CCCCOCCOC1=CC(=O)c2c(O)ccc(O)c2C1=O`, for which the TGI in the assay on PC-3 prostate worked out at 6.69 µM; with RXF 393 renal, 3.02 µM; in the assay with NCI-H23 lung, 3.17 µM; in the assay on CCRF-CEM leukemia, 4.04 µM; in the assay with OVCAR-4 ovarian it was 3.33 µM; with KM12 colon it was 3.14 µM. The TGI in the assay with UACC-62 melanoma is 2.98 µM; in the assay on RPMI-8226 leukemia, above 10 µM; in the assay with SN12C renal, 3.03 µM; in the assay on K-562 leukemia, above 10 µM; in the assay with HOP-92 NSCLC it was 4.44 µM; with SF-295 CNS, 3.02 µM. Also, the TGI came to 2.36 µM in the assay with COLO 205 colon; 2.98 µM with BT-549 breast; 3.07 µM in the assay with U251 CNS; 4.03 µM in the assay with T-47D breast; 3.26 µM in the assay on SK-MEL-2 melanoma; 0.738 µM in the assay with MALME-3M melanoma.

In the case of `O=C1C(=C(I)I)c2ccccc2-c2ccccc21`, the TGI with PC-3 prostate turned out to be 13.5 µM; with RXF 393 renal it was 3.22 µM; in the assay with NCI-H23 lung, 16.3 µM; in the assay on CCRF-CEM leukemia, 2.48 µM; in the assay with OVCAR-4 ovarian, 10.9 µM; in the assay on KM12 colon it was 24.6 µM. Further, the TGI with UACC-62 melanoma was 10.7 µM; in the assay on RPMI-8226 leukemia it was 3.95 µM; in the assay on SN12C renal, 4.31 µM; in the assay on K-562 leukemia, above 34.9 µM; with HOP-92 NSCLC, 5.66 µM; in the assay with SF-295 CNS, 31.8 µM. Besides, the TGI in the assay with COLO 205 colon was 3.66 µM; with BT-549 breast, 15.5 µM; in the assay with U251 CNS, 17.6 µM; with T-47D breast, above 100 µM; with SK-MEL-2 melanoma, 19.7 µM; with MALME-3M melanoma it was 4.08 µM.

Consider `NC(CCC(=O)O)(CCC(=O)O)CCC(=O)O`, for which the TGI in the assay on PC-3 prostate, with RXF 393 renal, in the assay with NCI-H23 lung, in the assay with CCRF-CEM leukemia, with KM12 colon and with UACC-62 melanoma was above 100 µM in each case. The TGI with RPMI-8226 leukemia, in the assay on SN12C renal, in the assay with K-562 leukemia, in the assay with HOP-92 NSCLC, with SF-295 CNS and in the assay with COLO 205 colon was above 100 µM in each case. Besides, the TGI in the assay on BT-549 breast, in the assay on U251 CNS, with T-47D breast, in the assay with SK-MEL-2 melanoma and in the assay with MALME-3M melanoma was above 100 µM throughout.
